Test results: patent US6407130B1, “Carboxamide-substituted benzimidazoles having tryptase-inhibiting activity” (Boehringer Ingelheim Pharma KG, priority 1999, dated 2002)
Counter-ions that a name gives are not always drawn.

Biological target: T1, rh beta tryptase (Homo sapiens, UniProt Q15661)
T1 construct: purchased Promega
Experiment: tryptase inhibition test (cleavage of N-p-tosyl-Gly-Pro-Lys-para-nitroaniline, p-nitroaniline measured at 405 nm)
Type: biochemical
Settings: Tris HCl buffer pH 7.4 with calcium and heparin; substrate 0.6 mM; 5 minutes' pre-incubation, 5 minutes incubation at 37° C.
Method: The compounds according to the invention are characterised by their tryptase-inhibiting activity. This ability to inhibit tryptase was investigated using the test described as follows. The measurement is carried out in Tris HCl buffer (100 mM), which additionally contains calcium (5 mM) and heparin ([…]), at pH 7.4. The standard used is rh beta tryptase which may be obtained commercially from Promega, for example. The substrate used is N-p-tosyl-Gly-Pro-Lys-para-nitroaniline in a concentration of 0.6 mM. The substrate is digested with tryptase to form p-nitroaniline which can be measured at 405 nm. Usually, an incubation period of 5 minutes and an incubation temperature of 37° C. are chosen. The enzyme activity used is 0.91 U/ml. The measurements are carried out in an Autoanalyser (Cobas Bio) made by Hofmann LaRoche. The potential inhibitory substances are used in concentrations of 10 μM in the screening, the inhibition of the tryptase being given in percent. The IC50 is determined at over 70% inhibition (concentration at which 50% of the enzyme activity is inhibited). After 5 minutes' pre-incubation of the potential inhibitory substances, the substrate is added to start the reaction, the formation of p-nitroaniline being taken as a measurement of the enzyme activity after 5 minutes, after testing the linearity.

T1 sequence (Q15661 31-275): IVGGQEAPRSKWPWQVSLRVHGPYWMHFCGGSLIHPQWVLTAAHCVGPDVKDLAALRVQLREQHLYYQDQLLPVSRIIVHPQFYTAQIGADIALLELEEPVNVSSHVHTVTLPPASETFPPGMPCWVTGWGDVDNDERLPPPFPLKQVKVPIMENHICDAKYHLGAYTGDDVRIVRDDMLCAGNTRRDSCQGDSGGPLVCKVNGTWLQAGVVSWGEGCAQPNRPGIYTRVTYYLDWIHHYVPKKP

Structure (SMILES) | IC50 [nM]
CN(C(=O)CCc1ccc(C(=N)N)cc1)c1ccc2c(c1)nc(CCc1ccc(C(=N)N)cc1)n2C [Example 1, N-{2-[2-(4-Amidinophenyl)-ethyl]-1-methyl-benzimidazol-5-yl}-N-methyl-[3-(4-amidinophenyl)-propionamide]dihydrochloride] | 64
CN(C(=O)CCC1CCN(Cc2ccccc2)CC1)c1ccc2c(c1)nc(CCc1ccc(C(=N)N)cc1)n2C [Example 2, N-{2-[2-(4-Amidinophenyl)-ethyl]-1-methyl-benzimidazol-5-yl}-N-methyl-[3-(N-benzyl-piperid-4-yl)-propionamide]-dihydrochloride] | 190
Cn1c(CCc2ccc(C(=N)N)cc2)nc2cc(NC(=O)C(N)Cc3ccc(C(=N)N)cc3)ccc21 (stereo not drawn) [Example 4, N-{2-[2-(4-Amidinophenyl)-ethyl]-1-methyl-benzimidazol-5-yl}-[2-amino-3-(p-amidinophenyl)-propionic Acid Amide]-trihydrochloride] | 55
CC(C)CN(C(=O)CCc1ccc(C(=N)N)cc1)c1ccc2c(c1)nc(CCc1ccc(C(=N)N)cc1)n2C [Example 5, N-{2-[2-(4-Amidinophenyl)-ethyl]-1-methyl-benzimidazol-5-yl}-N-isobutyl-[3-(4-amidinophenyl)-propionamide]-dihydrochloride] | 61
Cn1c(CCc2ccc(C(=N)N)cc2)nc2cc(N(Cc3ccccc3)C(=O)CCC3CCNCC3)ccc21 [Example 7] | 108
Cn1c(CCc2ccc(C(=N)N)cc2)nc2cc(N(Cc3ccc4ccccc4c3)C(=O)CCc3ccc(C(=N)N)cc3)ccc21 [Example 9, N-{2-[2-(4-Amidinophenyl)-ethyl]-1- -methy-benzimidazol-5-yl}-N-β-naphthylmethyl-[3-(4-amidinophenyl)-propionamide]-dihydrochloride] | 24
Cn1c(CCc2ccc(C(=N)N)cc2)nc2cc(N(Cc3ccc4ccccc4c3)C(=O)CCc3ccc(C(=N)N)cc3)ccc21 [Example 11, N-{2-[2-(4-Amidinophenyl)-ethyl]-1-methyl-benzimidazol-5-yl}-N-β-naphthylmethyl-[3-(4-amidinophenyl)-propionamide]-dihydrochloride] | 15
Cn1c(CCc2ccc(C(=N)N)cc2)nc2cc(N(Cc3ccccc3)C(=O)CCc3ccc(C(=N)N)cc3)ccc21 [Example 12, N-{2-[2-(4-Amidinophenyl)-ethyl]-1-methyl-benzimidazol-5-yl}-N-benzyl-[3-(4-amidinophenyl)-propionamide]-dihydrochloride] | 30
Cn1c(CCc2ccc(C(=N)N)cc2)nc2cc(N(Cc3cccc4ccccc34)C(=O)CCCN)ccc21 [Example 20, N-{2-[2-(4-Amidinophenyl)-ethyl]-1-methyl-benzimidazol-5-yl}-N-- naphthylmethyl-[4-amino-butanoic acid amide]-dihydrochloride] | 39
Cn1c(CCc2ccc(C(=N)N)cc2)nc2cc(N(Cc3cccc4ccccc34)C(=O)CCCCN)ccc21 [Example 24, N-{2-[2-(4-Amidinophenyl)-ethyl]-1-methyl-benzimidazol-5-yl}-N-( - naphthylmethyl)-[5-amino-pentanoic acid amide]-dihydrochloride] | 29
CN(C)CCCCC(=O)N(Cc1cccc2ccccc12)c1ccc2c(c1)nc(CCc1ccc(C(=N)N)cc1)n2C [Example 25, N-{2-[2-(4-Amidinophenyl)-ethyl]-1-methyl-benzimidazol-5-yl}-N-( - naphthylmethyl)-[5-dimethylamino-pentanoic acid amide]-dihydrochloride] | 33
CN(C)CCCCC(=O)N(Cc1ccccc1)c1ccc2c(c1)nc(CCc1ccc(C(=N)N)cc1)n2C [Example 26, N-{2-[2-(4-Amidinophenyl)-ethyl]-1-methyl-benzimidazol-5-yl}-N-benzyl-[5-dimethylamino-pentanoic acid amide]-dihydrochloride] | 53
CN(C)CCCC(=O)N(Cc1cccc2ccccc12)c1ccc2c(c1)nc(CCc1ccc(C(=N)N)cc1)n2C [Example 29, N-{2-[2-(4-Amidinophenyl)-ethyl]-1-methyl-benzimidazol-5-yl}-N-( - naphthylmethyl)-[4-dimethylamino-butanoic acid amide]-dihydrochloride] | 38
Cn1c(CCc2ccc(C(=N)N)cc2)nc2cc(N(Cc3cccc4ccccc34)C(=O)CCCNC(=N)N)ccc21 [Example 30, N-{2-[2-(4-Amidinophenyl)-ethyl]-1-methyl-benzimidazol-5-yl}-N-( - naphthylmethyl)-[4-guanidino-butanoic acid amide]-dihydrochloride] | 32
Cn1c(CCc2ccc(C(=N)N)cc2)nc2cc(N(Cc3cccc4ccccc34)C(=O)CCCCCN)ccc21 [Example 31, N-{2-[2-(4-Amidinophenyl)-ethyl]-1-methyl-benzimidazol-5-yl}-N-( - naphthylmethyl)-[6-amino-hexanoic acid amide]-dihydrochloride] | 30
Cn1c(CCc2ccc(C(=N)N)cc2)nc2cc(N(Cc3ccccc3)C(=O)CCCCN)ccc21 [Example 32, N-{2-[2-(4-Amidinophenyl)-ethyl]-1-methyl-benzimidazol-5-yl}-N-benzyl-[5-amino-pentanoic acid amide]-dihydrochloride] | 57
Cn1c(CCc2ccc(C(=N)N)cc2)nc2cc(N(Cc3ccccc3)C(=O)CCCCNC(=N)N)ccc21 [Example 34, N-{2-[2-(4-Amidinophenyl)-ethyl]-1-methyl-benzimidazol-5-yl}-N-benzyl-[5-guanidino-pentanoic acid amide]-dihydrochloride] | 43

Second part, the compound after the results:

IC50 [nM] | Structure (SMILES)
16 | Cn1c(CCc2ccc(C(=N)N)cc2)nc2cc(N(Cc3cccc4ccccc34)C(=O)CNCc3cccc(C(=N)N)c3)ccc21 [Example 8, N-{2-[2-(4-Amidinophenyl)-ethyl]-1-methylbenzimidazol-5-yl}-N-(α-naphthylmethyl)-[3-amidinobenzylaminoacetamide]-trihydrochloride]
16 | Cn1c(CCc2ccc(C(=N)N)cc2)nc2cc(N(CCC(c3ccccc3)c3ccccc3)C(=O)CCc3ccc(C(=N)N)cc3)ccc21 [Example 10, N-{2-[2-(4-Amidinophenyl)-ethyl]-1-methyl-benzimidazol-5-yl}-N-(3,3-diphenylpropyl)-[3-(4-amidinophenyl)-propionamide]-dihydrochloride]
12 | CN(CC(=O)N(Cc1cccc2ccccc12)c1ccc2c(c1)nc(CCc1ccc(C(=N)N)cc1)n2C)Cc1cccc(C(=N)N)c1 [Example 18, N-{2-[2-(4-Amidinophenyl)-ethyl-1-methyl-benzimidazol-5-yl}-N-(- naphthylmethylamino)-N-methyl-N-[3-amidinobenzyl]-acetamide-trihydrochloride]
16 | Cn1c(CCc2ccc(C(=N)N)cc2)nc2cc(N(Cc3cccc4ccccc34)C(=O)CCc3cccc(C(=N)N)c3)ccc21 [Example 19, N-{2-[2-(4-Amidinophenyl)-ethyl]-1-methyl-benzimidazol-5-yl}-N-- naphthylmethyl-[3-(3-amidinophenyl)-propionamide]-dihydrochloride]
10 | Cn1c(CCc2ccc(C(=N)N)cc2)nc2cc(N(Cc3cccc4ccccc34)C(=O)CNCc3ccc(C(=N)N)cc3)ccc21 [Example 22, N-{2-[2-(4-Amidinophenyl)-ethyl]-1-methyl-benzimidazol-5-yl}-N-( - naphthylmethyl)-[4-amidinobenzylamino-acetamide]-trihydrochloride]
7 | Cn1c(CCc2ccc(C(=N)N)cc2)nc2cc(N(Cc3cccc4ccccc34)C(=O)CNCc3ccc(N)cc3)ccc21 [Example 23, N-{2-[2-(4-Amidinophenyl)-ethyl]-1-methyl-benzimidazol-5-yl}-N-( - naphthylmethyl)-[4-aminobenzylamino-acetamide]-trihydrochloride]
26 | Cn1c(CCc2ccc(C(=N)N)cc2)nc2cc(N(Cc3cccc4ccccc34)C(=O)CCCCNC(=N)N)ccc21 [Example 27, N-{2-[2-(4-Amidinophenyl)-ethyl]-1-methyl-benzimidazol-5-yl}-N-(- naphthylmethyl)-[5-guanidino-pentanoic acid amide]-dihydrochloride]
10 | Cn1c(CCc2ccc(C(=N)N)cc2)nc2cc(N(Cc3cccc4ccccc34)C(=O)CNCc3cccc(N)c3)ccc21 [Example 28, N-{2-[2-(4-Amidinophenyl)-ethyl]-1-methyl-benzimidazol-5-yl}-N-( - naphthylmethy)-[3-aminobenzylamino-acetamide]-trihydrochloride]
26 | Cn1c(CCc2ccc(C(=N)N)cc2)nc2cc(N(Cc3ccccc3)C(=O)CCc3cccc(C(=N)N)c3)ccc21 [Example 33, N-{2-[2-(4-Amidinophenyl)-ethyl]-1-methyl-benzimidazol-5-yl}-N-benzyl-[3-(3-amidinophenyl)-propionamide]-dihydrochloride]
14 | Cn1c(CCc2ccc(C(=N)N)cc2)nc2cc(N(Cc3cccc4ccccc34)C(=O)CCC3CCN(Cc4ccccc4)CC3)ccc21 [Example 35, N-{2-[2-(4-Amidinophenyl)-ethyl]-1-methyl-benzimidazol-5-yl}-N-( - naphthylmethyl)-[3-(1-benzyl-piperidin-4-yl)-propionamide]-dihydro-chloride]
